Experiment [1] deals with T1, human BRD4 bromodomain II (Homo sapiens, UniProt O60885).
T1 construct: human BRD4 bromodomain II [based on Genbank NM_058243, residues 349-460]; host or cells: E. coli
As to the kind of experiment: Bromodomain binding assay (AlphaScreen), BRD4 BDII. The method in brief:
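Tagged BRD4 BDI or BDII constructs, expressed in E. coli, competed against a K5/K8/K12/K16-acetylated biotin-H4 peptide. Proximity signal between bead pairs after room-temperature incubations gave concentration-response curves, from which IC50 was derived.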
Background: In Alpha technology, singlet oxygen from a donor bead excites a nearby acceptor bead.

The test system of experiment [2] is human SKM-1 acute myeloid leukemia cells. As to the kind of experiment: SKM-1 antiproliferation cell-based assay (ATPlite). To be noted: Homo sapiens. In short, it runs like this:
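Log-phase cells in RPMI 1640/15% FBS were seeded at 34722 cells/mL and exposed for 4 days to nine-concentration DMSO serial dilutions in triplicate. Viability was read as ATP luminescence (ATPlite 1step), and IC50 values came from variable-slope non-linear regression.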
(Cellular ATP, detected with luciferase, serves as a proxy for viable cell number.)

The mark [3] stands for this setting: AlphaScreen assay, Table C2, read-out: BRD4 BDII IC50.
Where [4] appears, read: SKM-1, 96 h, SKM-1 antiproliferation assay, 4 days, Table C2.
[5] abbreviates: BRD4 BDII AlphaScreen assay, read-out: BRD4 BD2 IC50.
Where [6] appears, read: SKM-1, SKM-1 antiproliferation assay.

The structures appear in SMILES notation. Where two headings read alike, the source gives them in different places. Where only a bound is given, the exact number is not on record here.

Usually IC50 stands for the concentration needed to halve the response being measured. As usually defined, the GI50 is the concentration giving 50% growth inhibition. A higher GI50 goes with less potent growth inhibition. Consider `O=C1CCC(=O)N1c1ccc(-c2cccc(-c3ccnc(N4CCNCC4)c3)c2O)cc1F` [Example 303, 1-(3-fluoro-2′-hydroxy-3′-(2-(piperazin-1-yl)pyridin-4-yl)-[1,1′-biphenyl]-4-yl)pyrrolidine-2,5-dione], for which, in experiment [1] (setting [3]), the IC50 was over 100 nM. In experiment [2] (setting [4]), this compound gave a GI50 of at least 3000 nM.

Regarding `Cn1ccn(-c2ccc(-c3cc(F)cc(-c4cc(N5CCNCC5)c5cn[nH]c5c4)c3O)cc2Cl)c1=O` [Example 526, 1-(3-chloro-5′-fluoro-2′-hydroxy-3′-(4-(piperazin-1-yl)-1H-indazol-6-yl)-[1,1′-biphenyl]-4-yl)-3-methyl-1H-imidazol-2(3H)-one], the IC50 in experiment [1] (setting [3]) fell in the range of 1 to 10 nM. Moreover, the GI50 in experiment [2] (setting [4]) was in the range of 0.3 to 30 nM.

On to `COC(=O)c1ncc(-c2cc(F)cc(-c3ccc(N4CCN(C)C4=O)c(Cl)c3)c2O)cc1N1CCNCC1` [Example 376, Methyl 5-(3′-chloro-5-fluoro-2-hydroxy-4′-(3-methyl-2-oxoimidazolidin-1-yl)-[1,1′-biphenyl]-3-yl)-3-(piperazin-1-yl)picolinate], for which the half-maximal inhibitory concentration (IC50) in experiment [1] (setting [3]) was over 100 nM. Moreover, the concentration for 50% growth inhibition (GI50) in experiment [2] (setting [4]) was at least 3000 nM.

For the compound `O=c1n(-c2ccc(-c3cc(F)cc(-c4ccnc(N5CCNCC5)c4)c3O)cc2Cl)ccn1C(F)F` [Example 468, 1-(3-chloro-5′-fluoro-2′-hydroxy-3′-(2-(piperazin-1-yl)pyridin-4-yl)-[1,1′-biphenyl]-4-yl)-3-(difluoromethyl)-1H-imidazol-2(3H)-one], in experiment [1] (setting [3]), the IC50 was 1 to 10 nM. This compound had a GI50 in experiment [2] (setting [4]) of 300 to 3000 nM.

Regarding `Cn1ccn(-c2ccc(-c3cc(F)cc(-c4ccnc(N5CCN(C(C)(C)C)CC5)c4)c3O)cc2Cl)c1=O` [Example 614, 1-(3′-(2-(4-(tert-butyl)piperazin-1-yl)pyridin-4-yl)-3-chloro-5′-fluoro-2′-hydroxy-[1,1′-biphenyl]-4-yl)-3-methyl-1H-imidazol-2(3H)-one], the IC50 in experiment [1] (setting [3]) lay within 0.01 to 1 nM. The 50% growth inhibitory concentration (GI50) in experiment [2] (setting [4]) is 0.3 to 30 nM.

As to `CC(C)(C)N1CCN(c2cccc(-c3cc(F)cc(-c4ccc(-n5cc[nH]c5=O)c(Cl)c4)c3O)c2)CC1` [Example 928, 1-(3″-(4-(tert-butyl)piperazin-1-yl)-3-chloro-5′-fluoro-2′-hydroxy-[1,1′:3′,1″-terphenyl]-4-yl)-1H-imidazol-2(3H)-one], in experiment [1] (setting [5]), the IC50 fell in the range of 1 to 10 nM. In addition, the concentration for 50% growth inhibition (GI50) in experiment [2] (setting [6]) fell in the range of 30 to 300 nM.

With `COc1ncc(-c2cc(F)cc(-c3ccc(-n4ccn(C)c4=O)c(Cl)c3)c2O)cc1N1CCN(C2CCC2)CC1` [Example 880], the IC50 in experiment [1] (setting [5]) was 0.01 to 1 nM. The GI50 in experiment [2] (setting [6]) lay in the range of 0.3 to 30 nM.

`Cn1ccn(-c2ccc(-c3cc(F)cc(-c4ccnc(N5CC[C@H](N)C5)c4)c3O)cc2Cl)c1=O` [Example 423, (S)-1-(3′-(2-(3-aminopyrrolidin-1-yl)pyridin-4-yl)-3-chloro-5′-fluoro-2′-hydroxy-[1,1′-biphenyl]-4-yl)-3-methyl-1H-imidazol-2(3H)-one]: in experiment [1] (setting [3]), the IC50 fell in the range of 0.01 to 1 nM. In experiment [2] (setting [4]), this compound yielded a GI50 of 0.3 to 30 nM.

Regarding `CC(C)N1CCCC12CCN(c1cccc(-c3cc(F)cc(-c4ccc(-n5ccn(C)c5=O)c(Cl)c4)c3O)c1)C2` (centres unmarked) [Example 909, 1-(3-chloro-5′-fluoro-2′-hydroxy-3″-(1-isopropyl-1,7-diazaspiro[4.4]nonan-7-yl)-[1,1′:3′,1″-terphenyl]-4-yl)-3-methyl-1H-imidazol-2(3H)-one], the IC50 in experiment [1] (setting [5]) is 1 to 10 nM. In experiment [2] (setting [6]), this compound gave a GI50 of 30 to 300 nM.

As for `COC(=O)Oc1c(-c2ccc(-n3ccn(C)c3=O)c(Cl)c2)cc(F)cc1-c1cnc(C)c(N2CCN(C(C)C)CC2)c1` [Example 877], in experiment [1] (setting [5]), the half-maximal inhibitory concentration (IC50) was over 100 nM. The GI50 in experiment [2] (setting [6]) fell in the range of 0.3 to 30 nM.

`O=C1CCCN1c1ccc(-c2cccc(-c3ccnc(N4CCNCC4)c3)c2O)cc1Cl` [Example 209, 1-(3-chloro-2′-hydroxy-3′-(2-(piperazin-1-yl)pyridin-4-yl)-[1,1′-biphenyl]-4-yl)pyrrolidin-2-one]: the IC50 in experiment [1] (setting [3]) lay within 1 to 10 nM. The compound further came in with a concentration for 50% growth inhibition (GI50) in experiment [2] (setting [4]) of 30 to 300 nM.

Consider `CC(=O)Nc1cc(-c2cccc(-c3ccc(N4CCN(C)C4=O)c(Cl)c3)c2O)cc(N2CCNCC2)n1` [Example 383, N-(4-(3′-chloro-2-hydroxy-4′-(3-methyl-2-oxoimidazolidin-1-yl)-[1,1′-biphenyl]-3-yl)-6-(piperazin-1-yl)pyridin-2-yl)acetamide], for which, in experiment [1] (setting [3]), the IC50 was 1 to 10 nM. For the same compound, in experiment [2] (setting [4]), the concentration for 50% growth inhibition (GI50) is 0.3 to 30 nM.

In the case of `Cn1ccn(-c2ccc(-c3cc(F)cc(-c4ccnc(N5CCNC(c6ccccc6)C5)c4)c3O)cc2Cl)c1=O` (centres unmarked) [Example 631, 1-(3-chloro-5′-fluoro-2′-hydroxy-3′-(2-(3-phenylpiperazin-1-yl)pyridin-4-yl)-[1,1′-biphenyl]-4-yl)-3-methyl-1H-imidazol-2(3H)-one], the IC50 in experiment [1] (setting [3]) was 0.01 to 1 nM. Moreover, the GI50 in experiment [2] (setting [4]) fell in the range of 30 to 300 nM.

For `Cn1ccn(-c2ccc(-c3cc(F)cc(-c4cc(N5C[C@@H](N)C6(CC6)C5)c5cn[nH]c5c4)c3O)cc2Cl)c1=O` [Example 598, (S)-1-(3′-(4-(7-amino-5-azaspiro[2.4]heptan-5-yl)-1H-indazol-6-yl)-3-chloro-5′-fluoro-2′-hydroxy-[1,1′-biphenyl]-4-yl)-3-methyl-1H-imidazol-2(3H)-one], the IC50 in experiment [1] (setting [3]) lay within 1 to 10 nM. In experiment [2] (setting [4]), this compound gave a 50% growth inhibitory concentration (GI50) of 0.3 to 30 nM.

In the case of `Cn1ccn(-c2ccc(-c3cc(F)cc(-c4ccnc(N5CC(O)C6(CC6)C5)c4)c3O)cc2Cl)c1=O` (centres unmarked) [Example 743, 1-(3-chloro-5′-fluoro-2′-hydroxy-3′-(2-(7-hydroxy-5-azaspiro[2.4]heptan-5-yl)pyridin-4-yl)-[1,1′-biphenyl]-4-yl)-3-methyl-1H-imidazol-2(3H)-one], the IC50 in experiment [1] (setting [3]) lay in the range of 0.01 to 1 nM. The GI50 in experiment [2] (setting [4]) fell in the range of 0.3 to 30 nM.

As to `Cn1ccn(-c2ccc(-c3cc(F)cc(-c4ccc5ccc(C(C)(C)O)cc5c4)c3O)cc2Cl)c1=O` [Example 801, 1-(3-chloro-5′-fluoro-2′-hydroxy-3′-(7-(2-hydroxypropan-2-yl)naphthalen-2-yl)-[1,1′-biphenyl]-4-yl)-3-methyl-1H-imidazol-2(3H)-one], the IC50 in experiment [1] (setting [3]) was in the range of 1 to 10 nM. This compound yielded a GI50 in experiment [2] (setting [4]) of 30 to 300 nM.

For `Cn1ccn(-c2ccc(-c3cc(F)cc(-c4cncc(N5CCN(C(C)(C)C)CC5)c4)c3O)cc2Cl)c1=O` [Example 664, 1-(3′-(5-(4-(tert-butyl)piperazin-1-yl)pyridin-3-yl)-3-chloro-5′-fluoro-2′-hydroxy-[1,1′-biphenyl]-4-yl)-3-methyl-1H-imidazol-2(3H)-one], in experiment [1] (setting [3]), the IC50 lay in the range of 0.01 to 1 nM. The same compound had a GI50 in experiment [2] (setting [4]) of 0.3 to 30 nM.

Regarding `Cn1ccn(-c2ccc(-c3cc(F)cc(-c4ccnc(N5CCN(CCCF)CC5)c4)c3O)cc2Cl)c1=O` [Example 527, 1-(3-chloro-5′-fluoro-3′-(2-(4-(3-fluoropropyl)piperazin-1-yl)pyridin-4-yl)-2′-hydroxy-[1,1′-biphenyl]-4-yl)-3-methyl-1H-imidazol-2(3H)-one], the IC50 in experiment [1] (setting [3]) fell in the range of 0.01 to 1 nM. In addition, the GI50 in experiment [2] (setting [4]) fell in the range of 0.3 to 30 nM.

Consider `COc1ncc(-c2cc(F)cc(-c3ccc(-n4ccn(C)c4=O)c(Cl)c3)c2O)cc1N1CCN(C2CCOC2)CC1` (centres unmarked) [Example 869], for which the IC50 in experiment [1] (setting [5]) fell in the range of 1 to 10 nM. The GI50 in experiment [2] (setting [6]) fell in the range of 0.3 to 30 nM.

On to `COC(=O)c1cc(-c2cccc(-c3ccc(NC(C)=O)c(F)c3)c2O)cc(N2CCNCC2)n1` [Example 260, Methyl 4-(4′-acetamido-3′-fluoro-2-hydroxy-[1,1′-biphenyl]-3-yl)-6-(piperazin-1-yl)picolinate], for which the half-maximal inhibitory concentration (IC50) in experiment [1] (setting [3]) was over 100 nM. The 50% growth inhibitory concentration (GI50) in experiment [2] (setting [4]) is at least 3000 nM.

As for `O=C1NCCCN1c1ccc(-c2cccc(-c3ccnc(N4CCNCC4)c3)c2O)cc1Cl` [Example 276, 1-(3-chloro-2′-hydroxy-3′-(2-(piperazin-l-yl)pyridin-4-yl)-[1,1′-biphenyl]-4-yl)tetrahydropyrimidin-2(1H)-one], the IC50 in experiment [1] (setting [3]) is 10 to 100 nM. The GI50 in experiment [2] (setting [4]) lay in the range of 300 to 3000 nM.

As to `CNC(=O)c1cc(-c2cccc(-c3ccc(NC(C)=O)c(F)c3)c2O)cc(N2CCNCC2)n1` [Example 349, 4-(4′-acetamido-3′-fluoro-2-hydroxy-[1,1′-biphenyl]-3-yl)-N-methyl-6-(piperazin-1-yl)picolinamide], in experiment [1] (setting [3]), the IC50 was in the range of 10 to 100 nM. Also, the GI50 in experiment [2] (setting [4]) was in the range of 300 to 3000 nM.

On to `Cn1ccn(-c2ccc(-c3cc(F)cc(-c4ccnc(N5CC(C)(C)C(C)(O)C5)c4)c3O)cc2Cl)c1=O` (centres unmarked) [Example 783, 1-(3-chloro-5′-fluoro-2′-hydroxy-3′-(2-(3-hydroxy-3,4,4-trimethylpyrrolidin-1-yl)pyridin-4-yl)-[1,1′-biphenyl]-4-yl)-3-methyl-1H-imidazol-2(3H)-one], for which the IC50 in experiment [1] (setting [3]) lay in the range of 0.01 to 1 nM. In experiment [2] (setting [4]), this compound came in with a GI50 of 0.3 to 30 nM.

Regarding `CN(C)c1ncc(-c2cc(F)cc(-c3ccc(-n4ccn(C)c4=O)c(Cl)c3)c2O)cc1N1CCN(C(C)(C)C)CC1` [Example 922, 1-(3′-(5-(4-(tert-Butyl)piperazin-1-yl)-6-(dimethylamino)pyridin-3-yl)-3-chloro-5′-fluoro-2′-hydroxy-[1,1′-biphenyl]-4-yl)-3-methyl-1H-imidazol-2(3H)-one], the 50% inhibitory concentration (IC50) in experiment [1] (setting [5]) is 0.01 to 1 nM. Also, in experiment [2] (setting [6]), the GI50 lay in the range of 0.3 to 30 nM.

Turning to `Cn1ccn(-c2ccc(-c3cc(F)cc(-c4ccnc(N5C[C@@H](N)[C@H](O)C5)c4)c3O)cc2Cl)c1=O` [Example 490, 1-(3′-(2-((3R,4R)-3-amino-4-hydroxypyrrolidin-1-yl)pyridin-4-yl)-3-chloro-5′-fluoro-2′-hydroxy-[1,1′-biphenyl]-4-yl)-3-methyl-1H-imidazol-2(3H)-one], in experiment [1] (setting [3]), the IC50 was 0.01 to 1 nM. In experiment [2] (setting [4]), this compound yielded a GI50 of 0.3 to 30 nM.

For the origin of these results see US20250179059A1 (The Regents of the University of California, priority 2021, published 2025).
